Results as given in patent publication US20220095618A1, “HERBICIDAL COMPOSITIONS” (SYNGENTA CROP PROTECTION AG, priority 2019, published 2022).

Legend:
Assay in all cases: Post-emergence efficacy of compounds of Formula (I) (B1), glasshouse
Type in all cases: in vivo
[1] = system: Echinochloa crus-galli (ECHCG); details: Application Rate 500 g/Ha, evaluated after 13 days; for pest or weed control at 500 g/ha: Echinochloa crus-galli, post-emergence, 312 h, read-out: Control of ECHCG after post-emergence application (100=total damage to plant; 0=no damage to plant)
Method: (§1) Seeds of a variety of test species were sown in standard Iaom-based soil in pots:— Ipomoea hederacea (IPOHE), Euphorbia heterophylla (EPHHL), Chenopodium album (CHEAL), Amaranthus palmeri (AMAPA), Lolium perenne (LOLPE), Digitaria sanguinalis (DIGSA), Eleusine indica (ELEIN), Echinochloa crus-galli (ECHCG), Setaria faberi (SETFA). After cultivation for 14 days (post-emergence) under controlled conditions in a glasshouse (at 24/16° C., day/night; 14 hours light; 65% humidity), the plants were sprayed with an aqueous spray solution derived from the dissolution of the technical active ingredient Formula (I) in a small amount of acetone and a special solvent and emulsifier mixture referred to as IF50 (11.12% Emulsogen EL360 TM+44.44% N-methylpyrrolidone+44.44% Dowanol DPM glycol ether), to create a 50 g/I solution which was then diluted to required concentration using 0.25% or 1% Empicol ESC70 (Sodium lauryl ether sulphate)+1% ammonium sulphate as diluent. The delivery of the aqueous spray solution was via a laboratory track sprayer which delivered the aqueous spray composition at a rate of 200 litres per hectare, using a flat fan nozzle (Teejet 11002VS) and an application volume of 200 litre/ha (at 2 bar).
(§2) The test plants were then grown in a glasshouse under controlled conditions (at 24/16° C., day/night; 14 hours light; 65% humidity) and watered twice daily. After 13 days the test was evaluated (100=total damage to plant; 0=no damage to plant).

[2] = system: Digitaria sanguinalis (DIGSA); details: Application Rate 500 g/Ha, evaluated after 13 days; for pest or weed control at 500 g/ha: Digitaria sanguinalis, post-emergence, 312 h, read-out: Control of DIGSA after post-emergence application (100=total damage to plant; 0=no damage to plant)
Method: as §1, §2

[3] = system: Euphorbia heterophylla (EPHHL); details: Application Rate 500 g/Ha, evaluated after 13 days; for pest or weed control at 500 g/ha: Euphorbia heterophylla, post-emergence, 312 h, read-out: Control of EPHHL after post-emergence application (100=total damage to plant; 0=no damage to plant)
Method: as §1, §2

[4] = system: Eleusine indica (ELEIN); details: Application Rate 500 g/Ha, evaluated after 13 days; for pest or weed control at 500 g/ha: Eleusine indica, post-emergence, 312 h, read-out: Control of ELEIN after post-emergence application (100=total damage to plant; 0=no damage to plant)
Method: as §1, §2

[5] = system: Lolium perenne (LOLPE); details: Application Rate 500 g/Ha, evaluated after 13 days; for pest or weed control at 500 g/ha: Lolium perenne, post-emergence, 312 h, read-out: Control of LOLPE after post-emergence application (100=total damage to plant; 0=no damage to plant)
Method: as §1, §2

[6] = system: Setaria faberi (SETFA); details: Application Rate 500 g/Ha, evaluated after 13 days; for pest or weed control at 500 g/ha: Setaria faberi, post-emergence, 312 h, read-out: Control of SETFA after post-emergence application (100=total damage to plant; 0=no damage to plant)
Method: as §1, §2

[7] = system: Chenopodium album (CHEAL); details: Application Rate 500 g/Ha, evaluated after 13 days; for pest or weed control at 500 g/ha: Chenopodium album, post-emergence, 312 h, read-out: Control of CHEAL after post-emergence application (100=total damage to plant; 0=no damage to plant)
Method: as §1, §2

[8] = system: Amaranthus palmeri (AMAPA); details: Application Rate 500 g/Ha, evaluated after 13 days; for pest or weed control at 500 g/ha: Amaranthus palmeri, post-emergence, 312 h, read-out: Control of AMAPA after post-emergence application (100=total damage to plant; 0=no damage to plant)
Method: as §1, §2

[9] = system: Ipomoea hederacea (IPOHE); details: Application Rate 500 g/Ha, evaluated after 13 days; for pest or weed control at 500 g/ha: Ipomoea hederacea, post-emergence, 312 h, read-out: Control of IPOHE after post-emergence application (100=total damage to plant; 0=no damage to plant)
Method: as §1, §2

O=S(=O)([O-])CC[n+]1ccc(-c2ccncc2)cn1 [Compound 1.007]
pest or weed control at 500 g/ha [1]: 80%
pest or weed control at 500 g/ha [2]: 100%
pest or weed control at 500 g/ha [3]: 40%
pest or weed control at 500 g/ha [4]: 100%
pest or weed control at 500 g/ha [5]: 90%
pest or weed control at 500 g/ha [6]: 70%
pest or weed control at 500 g/ha [7]: 100%
pest or weed control at 500 g/ha [8]: 100%
pest or weed control at 500 g/ha [9]: 30%

O=C(O)CC[n+]1ccc(-c2ccncn2)cn1 [Compound 1.011]
pest or weed control at 500 g/ha [1]: 90%
pest or weed control at 500 g/ha [2]: 90%
pest or weed control at 500 g/ha [3]: 100%
pest or weed control at 500 g/ha [4]: 100%
pest or weed control at 500 g/ha [5]: 70%
pest or weed control at 500 g/ha [6]: 100%
pest or weed control at 500 g/ha [7]: 100%
pest or weed control at 500 g/ha [8]: 100%
pest or weed control at 500 g/ha [9]: 100%

O=C(O)CC[n+]1ccc(-c2cnccn2)cn1.[Cl-] [Compound 1.012, 3-(4-pyrazin-2-ylpyridazin-1-ium-1-yl)propanoic acid chloride]
Control of ECHCG after post-emergence application (100=total damage to plant; 0=no damage to plant) [1]: 90
Control of DIGSA after post-emergence application (100=total damage to plant; 0=no damage to plant) [2]: 100
Control of EPHHL after post-emergence application (100=total damage to plant; 0=no damage to plant) [3]: 100
Control of ELEIN after post-emergence application (100=total damage to plant; 0=no damage to plant) [4]: 90
Control of LOLPE after post-emergence application (100=total damage to plant; 0=no damage to plant) [5]: 50
Control of SETFA after post-emergence application (100=total damage to plant; 0=no damage to plant) [6]: 90
Control of CHEAL after post-emergence application (100=total damage to plant; 0=no damage to plant) [7]: 100
Control of AMAPA after post-emergence application (100=total damage to plant; 0=no damage to plant) [8]: 100
Control of IPOHE after post-emergence application (100=total damage to plant; 0=no damage to plant) [9]: 20

COC(=O)CC[n+]1ccc(-c2cnccn2)cn1 [Compound 1.013, methyl 3-(4-pyrazin-2-ylpyridazin-1-ium-1-yl)propanoate chloride]
pest or weed control at 500 g/ha [1]: 80%
pest or weed control at 500 g/ha [2]: 100%
pest or weed control at 500 g/ha [3]: 100%
pest or weed control at 500 g/ha [4]: 100%
pest or weed control at 500 g/ha [5]: 70%
pest or weed control at 500 g/ha [6]: 100%
pest or weed control at 500 g/ha [7]: 90%
pest or weed control at 500 g/ha [8]: 100%
pest or weed control at 500 g/ha [9]: 80%

O=C(CC[n+]1ccc(-c2ncccn2)cn1)OCc1ccccc1 [Compound 1.018]
pest or weed control at 500 g/ha [1]: 80%
pest or weed control at 500 g/ha [2]: 100%
pest or weed control at 500 g/ha [3]: 100%
pest or weed control at 500 g/ha [4]: 100%
pest or weed control at 500 g/ha [5]: 40%
pest or weed control at 500 g/ha [6]: 100%
pest or weed control at 500 g/ha [7]: 90%
pest or weed control at 500 g/ha [8]: 90%
pest or weed control at 500 g/ha [9]: 30%

O=C(CC[n+]1ccc(-c2ncccn2)cn1)Oc1ccccc1 [Compound 1.020]
pest or weed control at 500 g/ha [1]: 90%
pest or weed control at 500 g/ha [2]: 100%
pest or weed control at 500 g/ha [3]: 80%
pest or weed control at 500 g/ha [4]: 100%
pest or weed control at 500 g/ha [5]: 80%
pest or weed control at 500 g/ha [6]: 100%
pest or weed control at 500 g/ha [7]: 80%
pest or weed control at 500 g/ha [8]: 100%
pest or weed control at 500 g/ha [9]: 30%

O=C(O)CC[n+]1ccc(-c2ncccn2)cn1.[Br-] [Compound 1.021, 3-(4-pyrimidin-2-ylpyridazin-1-ium-1-yl)propanoic acid bromide]
Control of ECHCG after post-emergence application (100=total damage to plant; 0=no damage to plant) [1]: 100
Control of DIGSA after post-emergence application (100=total damage to plant; 0=no damage to plant) [2]: 100
Control of EPHHL after post-emergence application (100=total damage to plant; 0=no damage to plant) [3]: 100
Control of ELEIN after post-emergence application (100=total damage to plant; 0=no damage to plant) [4]: 100
pest or weed control at 500 g/ha [5]: 70%
Control of SETFA after post-emergence application (100=total damage to plant; 0=no damage to plant) [6]: 100
Control of CHEAL after post-emergence application (100=total damage to plant; 0=no damage to plant) [7]: 100
pest or weed control at 500 g/ha [8]: 100%
Control of IPOHE after post-emergence application (100=total damage to plant; 0=no damage to plant) [9]: 100

CC(C)(C[n+]1ccc(-c2ncccn2)cn1)C(=O)O [Compound 1.022]
pest or weed control at 500 g/ha [1]: 90%
pest or weed control at 500 g/ha [2]: 100%
pest or weed control at 500 g/ha [3]: 100%
pest or weed control at 500 g/ha [4]: 100%
pest or weed control at 500 g/ha [5]: 60%
pest or weed control at 500 g/ha [6]: 100%
pest or weed control at 500 g/ha [7]: 80%
pest or weed control at 500 g/ha [8]: 100%
pest or weed control at 500 g/ha [9]: 100%

CC(C[n+]1ccc(-c2ncccn2)cn1)C(=O)O (stereo not drawn) [Compound 1.024]
pest or weed control at 500 g/ha [1]: 100%
pest or weed control at 500 g/ha [2]: 90%
pest or weed control at 500 g/ha [3]: 100%
pest or weed control at 500 g/ha [4]: 100%
pest or weed control at 500 g/ha [5]: 80%
pest or weed control at 500 g/ha [6]: 100%
pest or weed control at 500 g/ha [7]: 90%
pest or weed control at 500 g/ha [8]: 100%
pest or weed control at 500 g/ha [9]: 40%

CC(C)(CC(=O)O)[n+]1ccc(-c2ncccn2)cn1 [Compound 1.025, 3-methyl-3-(4-pyrimidin-2-ylpyridazin-1-ium-1-yl)butanoic acid 2,2,2-trifluoroacetate]
pest or weed control at 500 g/ha [1]: 100%
pest or weed control at 500 g/ha [2]: 90%
pest or weed control at 500 g/ha [3]: 40%
pest or weed control at 500 g/ha [4]: 100%
pest or weed control at 500 g/ha [5]: 30%
pest or weed control at 500 g/ha [6]: 100%
pest or weed control at 500 g/ha [7]: 70%
pest or weed control at 500 g/ha [8]: 100%
pest or weed control at 500 g/ha [9]: 50%

CC(C[n+]1ccc(-c2ncccn2)cn1)S(=O)(=O)[O-] (stereo not drawn) [Compound 1.026, 1-(4-pyrimidin-2-ylpyridazin-1-ium-1-yl)propane-2-sulfonate]
pest or weed control at 500 g/ha [1]: 80%
pest or weed control at 500 g/ha [2]: 100%
pest or weed control at 500 g/ha [3]: 90%
pest or weed control at 500 g/ha [4]: 100%
pest or weed control at 500 g/ha [5]: 80%
pest or weed control at 500 g/ha [6]: 100%
pest or weed control at 500 g/ha [7]: 80%
pest or weed control at 500 g/ha [8]: 100%
pest or weed control at 500 g/ha [9]: 70%

O=C(O)CC[n+]1ccc(-c2cccnn2)cn1.[Cl-] [Compound 1.027, 3-(4-pyridazin-3-ylpyridazin-1-ium-1-yl)propanoic acid chloride]
Control of ECHCG after post-emergence application (100=total damage to plant; 0=no damage to plant) [1]: 100
Control of DIGSA after post-emergence application (100=total damage to plant; 0=no damage to plant) [2]: 100
Control of EPHHL after post-emergence application (100=total damage to plant; 0=no damage to plant) [3]: 100
pest or weed control at 500 g/ha [4]: 80%
pest or weed control at 500 g/ha [5]: 100%
Control of SETFA after post-emergence application (100=total damage to plant; 0=no damage to plant) [6]: 100
Control of CHEAL after post-emergence application (100=total damage to plant; 0=no damage to plant) [7]: 100
Control of AMAPA after post-emergence application (100=total damage to plant; 0=no damage to plant) [8]: 100
Control of IPOHE after post-emergence application (100=total damage to plant; 0=no damage to plant) [9]: 30

O=S(=O)([O-])CC(O)C[n+]1ccc(-c2ncccn2)cn1 (stereo not drawn) [Compound 1.028]
pest or weed control at 500 g/ha [1]: 100%
pest or weed control at 500 g/ha [2]: 90%
pest or weed control at 500 g/ha [3]: 80%
pest or weed control at 500 g/ha [4]: 100%
pest or weed control at 500 g/ha [5]: 70%
pest or weed control at 500 g/ha [6]: 100%
pest or weed control at 500 g/ha [7]: 90%
pest or weed control at 500 g/ha [8]: 100%
pest or weed control at 500 g/ha [9]: 30%

N[C@H](CC[n+]1ccc(-c2ncccn2)cn1)C(=O)O [Compound 1.029, [(1R)-1-carboxy-3-(4-pyrimidin-2-ylpyridazin-1-ium-1-yl)propyl]-ammonium 2,2,2-trifluoroacetate]
pest or weed control at 500 g/ha [1]: 60%
pest or weed control at 500 g/ha [2]: 90%
pest or weed control at 500 g/ha [3]: 90%
pest or weed control at 500 g/ha [4]: 100%
pest or weed control at 500 g/ha [5]: 20%
pest or weed control at 500 g/ha [6]: 100%
pest or weed control at 500 g/ha [7]: 100%
pest or weed control at 500 g/ha [8]: 100%
pest or weed control at 500 g/ha [9]: 90%
